Measurements: patent US10718761B2, “Phosphatase or kinase activity detection composition and detection method” (INDUSTRY-UNIVERSITY COOPERATION FOUNDATION HANYANG …, priority 2014, dated 2020)

Tested on: TAMRA-PEPPKA(p)
Assay: Zn(II)-mediated QD-FRET between QD525 and TAMRA-labelled phosphopeptide
Format: binding
Details: QD 2 nM
Procedure: A synthetic peptide substrate labeled with 5(6)-carboxytetramethylrhodamine at the N-terminus (TAMRA-LRRASLG; TAMRA-PEPPKA) was compared with its phosphorylated form (TAMRA-LRRApSLG; TAMRA-PEPPKA(p)) (FIG. 12B). The FRET ratio was determined by the acceptor (FA) emission area (integrated from 550 to 650 nm) relative to the donor (FD) emission area (integrated from 450 to 550 nm). The concentrations of QD, TAMRA-PEPPKA(p) (or TAMRA-PEPPKA), and ZnCl2 were 2 nM, 80 nM and 100 μM, respectively. The QD-FRET spectra were obtained at an excitation wavelength of 380 nm.
The change in FRET between QD and TAMRA-PEPPKA(p) according to a function of Zn^2+ concentration was calculated. Furthermore, the relative FRET percentage was calculated by dividing the experimental FRET ratio by the maximal FRET ratio (0.74). The concentrations of QD and TAMRA-PEPPKA(p) were 2 nM and 80 nM, respectively. Excitation/emission wavelengths of QD-FRET (FIG. 12C (i)), QD (FIG. 12C (ii)), and TAMRA-PEPPKA(p) (FIG. 12C (iii)) were obtained at 380/580, 380/525, 530/580 nm, respectively.

Kd (free Zn(II) ions, TAMRA-PEPPKA(p) 80 nM (1:40 molar ratio), read-out: binding affinity Kd for TAMRA-PEPPKA(p), based on the FRET efficiency): 8.8 µM
Compound: [Cl-].[Cl-].[Zn+2] [Zn(II), ZnCl2]
FRET ratio (FA/FD) (TAMRA-PEPPKA(p) 80 nM, ZnCl2 100 μM, excitation 380 nm): 0.65
